Laboratory results taken from patent publication US20080214558A1, “PYRIMIDINE-2,4-DIAMINE DERIVATIVES AND THEIR USE AS JAK2 KINASE INHIBITORS” (SUPERGEN, INC., priority 2007, published 2008).

Assays:
[1] = tested on: STAT5-phospho-Y694 in HEL cells expressing the V617F mutant of JAK2; test: Western blot of STAT5 phosphorylation in HEL cells expressing JAK2 V617F; type: cell-based; conditions: Homo sapiens, 24 hours, Western blot densitometry, read-out: EC50 for reduction of STAT5 phosphorylation
Method: (§1) In order to detect specific inhibition of JAK2 enzyme in cell culture, Western blot assays may also be performed. For this, cells which have been treated with a potential JAK2 inhibitor are lysed with a buffer specific for the isolation and preservation of proteins (1% Nonidet P-40, 120 mM NaCl, 30 mM Tris pH 7.4, 1:100 Protease Inhibitor Cocktail III [Calbiochem/EMD Biosciences], 1:100 Phosphatase Inhibitor Cocktail 1 [Sigma-Aldrich, Saint Louis, Mo.], 1:100 Phosphatase Inhibitor Cocktail 2 [Sigma-Aldrich, Saint Louis, Mo.]). The protein concentration in these lysates is then quantified using the BCA Protein Assay Kit (Pierce). Known amounts of protein, e.g. 50 ug, are loaded onto 10% SDS-polyacrylamide gels and are subjected to reducing, denaturing SDS-PAGE. Electrophoresed proteins are transferred to a nitrocellulose membrane, which is then probed with antibodies to STAT5, pSTAT5 (Tyr 694), STAT3, and pSTAT3 (Tyr 705). As STAT5 and STAT3, at Tyrosine 694 and Tyrosine 705 respectively, are substrates for JAK2, measuring the amount of phosphorylation at these sites in treated cells provides a means by which to evaluate the efficacy of JAK2 inhibitors.
Briefly, HEL cells were plated in 25 cm^2 tissue culture flasks and incubated in the presence of varying concentrations of Compound Nos. 1 or 2 for 24 hours. Following incubation, cells were lysed and total protein isolated and quantified. 50 μg of total protein was electrophoresed and transferred to nitrocellulose membrane, at which point Western Blot analysis was performed using an antibody to STAT5-phospho-Y694. Comparisons to total STAT5 were made. Densitometry analysis was performed in order to quantify the amount of STAT5 phosphorylation in these treated cells.

JAK2 WT = target: T1, JAK2 WT (Homo sapiens, UniProt O60674); test: Invitrogen SelectScreen profiling, wild-type JAK2; type: biochemical; conditions: read-out: IC50 against wild-type JAK2 (SelectScreen)
T1 construct: These enzymes include both the JH1 and JH2 homology regions of the protein; purchased Invitrogen Corporation (SelectScreen assay service, Carlsbad, Calif.)
T1 sequence (O60674 532-1132 limits assumed): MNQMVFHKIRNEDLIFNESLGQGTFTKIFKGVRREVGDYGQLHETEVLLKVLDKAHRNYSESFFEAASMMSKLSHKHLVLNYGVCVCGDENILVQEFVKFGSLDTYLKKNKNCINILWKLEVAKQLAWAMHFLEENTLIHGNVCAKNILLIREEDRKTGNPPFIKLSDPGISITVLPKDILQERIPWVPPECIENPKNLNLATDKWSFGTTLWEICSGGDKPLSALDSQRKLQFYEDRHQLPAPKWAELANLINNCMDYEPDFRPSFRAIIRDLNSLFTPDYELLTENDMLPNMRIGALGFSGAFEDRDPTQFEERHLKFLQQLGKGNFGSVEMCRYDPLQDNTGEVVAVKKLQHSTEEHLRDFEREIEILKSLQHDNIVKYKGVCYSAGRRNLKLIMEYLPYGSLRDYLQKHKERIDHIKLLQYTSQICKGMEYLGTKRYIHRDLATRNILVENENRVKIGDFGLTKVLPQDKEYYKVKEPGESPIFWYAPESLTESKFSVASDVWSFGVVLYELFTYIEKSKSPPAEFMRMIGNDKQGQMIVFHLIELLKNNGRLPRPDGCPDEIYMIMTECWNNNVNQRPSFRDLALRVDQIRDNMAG
Text: (§2) The JAK2 V617F mutant isoform has recently come into focus for its role in neoplastic transformation. Thus, compounds may also be testing using the SelectScreen™ assay service (Invitrogen Corporation, Carlsbad, Calif.), which includes both wild-type and V617F mutant isoforms of JAK2. These enzymes include both the JH1 and JH2 homology regions of the protein, and differ only at amino acid 617.

JAK2 kinase [2] = target: T2, JAK2 kinase (Homo sapiens, UniProt O60674); test: Radiometric IC50Profiler assay (Millipore-Upstate); type: biochemical; parameters: purchased Millipore-Upstate (KinaseProfiler / IC50Profiler assay service, Dundee, UK); conditions: read-out: IC50 (IC50 Profiler data)
T2 sequence (O60674 whole entry): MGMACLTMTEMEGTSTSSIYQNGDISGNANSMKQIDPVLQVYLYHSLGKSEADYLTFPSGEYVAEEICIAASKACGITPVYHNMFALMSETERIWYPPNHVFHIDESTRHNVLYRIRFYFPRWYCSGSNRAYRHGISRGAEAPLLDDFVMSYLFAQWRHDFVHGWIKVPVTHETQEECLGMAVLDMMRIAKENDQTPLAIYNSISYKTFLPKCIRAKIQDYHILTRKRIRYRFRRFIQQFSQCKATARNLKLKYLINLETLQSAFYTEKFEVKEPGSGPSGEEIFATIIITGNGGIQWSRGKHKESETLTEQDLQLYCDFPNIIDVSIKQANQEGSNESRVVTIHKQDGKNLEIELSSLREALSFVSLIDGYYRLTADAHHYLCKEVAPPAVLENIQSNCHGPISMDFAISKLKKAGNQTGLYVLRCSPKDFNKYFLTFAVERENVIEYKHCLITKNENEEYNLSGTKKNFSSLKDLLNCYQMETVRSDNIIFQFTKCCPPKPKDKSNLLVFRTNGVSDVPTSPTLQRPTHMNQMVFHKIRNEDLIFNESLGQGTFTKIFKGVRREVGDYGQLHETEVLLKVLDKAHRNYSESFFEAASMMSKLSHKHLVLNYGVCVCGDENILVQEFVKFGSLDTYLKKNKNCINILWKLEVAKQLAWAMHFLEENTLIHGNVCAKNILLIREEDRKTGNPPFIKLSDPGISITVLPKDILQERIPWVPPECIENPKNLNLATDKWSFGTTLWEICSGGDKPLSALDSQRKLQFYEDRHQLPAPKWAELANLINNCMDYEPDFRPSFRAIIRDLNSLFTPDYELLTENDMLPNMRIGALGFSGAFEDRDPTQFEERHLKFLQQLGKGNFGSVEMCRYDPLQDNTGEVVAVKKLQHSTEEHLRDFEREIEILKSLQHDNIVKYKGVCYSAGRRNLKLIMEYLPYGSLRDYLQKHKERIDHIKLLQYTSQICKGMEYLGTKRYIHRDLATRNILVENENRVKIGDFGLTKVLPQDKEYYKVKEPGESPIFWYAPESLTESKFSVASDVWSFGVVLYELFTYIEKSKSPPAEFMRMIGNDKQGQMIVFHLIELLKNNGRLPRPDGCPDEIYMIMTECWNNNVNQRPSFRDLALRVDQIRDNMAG
Method: Compounds may also be tested using a radiometric assay; namely, the KinaseProfiler™ and IC50Profiler™ assay services (Millipore-Upstate, Dundee, UK). Briefly, compounds are tested at a single concentration (for single-point screening) or at a number of concentrations (for IC50 determinations) against recombinant JAK2 enzyme in the presence of radiolabeled ATP.

JAK2 V617F = target: T3, JAK2 V617F (Homo sapiens, UniProt O60674, V617F); test: Invitrogen SelectScreen profiling, mutant JAK2; type: biochemical; conditions: read-out: IC50 against mutant JAK2 V617F (SelectScreen)
T3 construct: These enzymes include both the JH1 and JH2 homology regions of the protein; purchased Invitrogen Corporation (SelectScreen assay service, Carlsbad, Calif.)
T3 sequence (O60674 532-1132 V617F limits assumed): as the sequence (O60674 532-1132 limits assumed) above, with V86F counted along it
Text: as §2

JAK2 kinase [3] = target: T2, JAK2 kinase; test: JAK2 kinase inhibition assay (Promega Kinase-Glo); type: biochemical; conditions: read-out: IC50 against JAK2 kinase (Promega Kinase-Glo assay)
Text: One illustrative manner in which JAK2 kinase activity can be determined is by quantifying the amount of ATP remaining in solution after an in vitro JAK2 kinase reaction, such as the Kinase-Glo Assay Kit (Promega, Inc., Madison, Wis.). The amount of ATP remaining in the solution after the kinase reaction serves as a substrate for the luciferase to catalyze luciferin to oxyluciferin plus one photon of light. Thus, the luminescent signal read by the Luminoskan Ascent Instrument (Thermo Electron Corp., Milford, Mass.) correlates with the amount of ATP present after the kinase reaction and inversely correlates with the amount of kinase activity. This assay is efficient at determining the IC50 values of kinase inhibitors against the JAK2 kinase. These assays are set up in duplicate 50 ul volumes in white, flat bottom 96 well plates. Inhibitors are added to the solution of 1× kinase buffer, 6 uM ATP, 62.5 uM JAK2-specific substrate, 30 ng of active JAK2 enzyme, and water in serial dilutions ranging from micromolar to nanomolar concentrations. This solution is incubated at 30 degrees Celsius at 360 rpm for two hours. Following the incubation, 50 ul of Kinase-Glo reagent is added to each well, including all positive and negative control wells, and incubated at room temperature for 15 minutes. […] The IC50 values can then be calculated for each inhibitor tested.
IC50 values against JAK2 kinase (using the Promega Kinase-Glo assay) were measured for Compound Nos. 1-4, 1-7, 1-11 and 1-17.

[4] = tested on: various cancer cell lines; test: Cell-Titer-Glo cell survival/proliferation assay; type: cell-based; conditions: screened between 300 nM and 10 nM, read-out: IC50 from % survival (Cell-Titer-Glo)
Method: Cell culture-based assays can be used to evaluate the ability of compounds of the invention to inhibit one or more cellular activities, such as cancer cell growth and/or survival. Numerous cancer cell lines can be obtained from the American Type Culture Collection (ATCC) and other sources. Briefly, cells are seeded into 96-well, tissue-culture treated, opaque white plates (Thermo Electron, Vantaa, Finland), at between 600 and 14000 cells per well, depending on the speed of cell proliferation, in 100 ul of appropriate growth medium (determined by the ATCC). Cells are then exposed to the appropriate concentration of drug and allowed to grow in its presence for 96 hours. Following this, 100 ul of Cell-Titer-Glo reagent (Promega, Inc., Madison, Wis.) is added to each well. Plates are then shaken for 2 minutes at room temperature to allow for cell lysis and incubated for 10 minutes at room temperature to stabilize the luminescent signal. Similar to the Kinase-Glo assay reagent from Promega, this reagent contains both luciferase enzyme and its substrate luciferin. Luciferase, activated by ATP in the cell lysate, catalyzes the conversion of luciferin to oxyluciferin, a reaction which produces light. The amount of light produced is proportionate to the amount of ATP in the cell lysate, which is itself proportional to cell number and gives an index of cellular proliferation.
Compound Nos. 1-4, 1-7, 1-11 and 1-17 were screened at a dilution range between 300 nM and 10 nM as JAK2 inhibitors, with percent survival being determined using the Cell-Titer-Glo Assay.

[5] = tested on: STAT5-phospho-Y694 in AGS gastric cancer cell line; test: Western blot of STAT5 phosphorylation in AGS cells; type: cell-based; conditions: 24 hours, 5-10 uM, Western blot densitometry
Method: as §1, with “Electrophoresed proteins are transferred to a nitrocellulose membrane, which is then probed with antibodies to STAT5, pSTAT5 (Tyr 694), STAT3, and pSTAT3 (Tyr 705). As STAT5 and STAT3, at Tyrosine 694 and Tyrosine 705 respectively, are substrates for JAK2, measuring the amount of phosphorylation at these sites in treated cells provides a means by which to evaluate the efficacy of JAK2 inhibitors.” left out
(§3) In this example, Compound 1-4 is shown to reduce the JAK2-dependent phosphorylation of STAT3 and STAT5 in the AGS gastric cancer cell line. […] Following incubation, cells were lysed and total protein isolated and quantified. […] Densitometry analysis was performed in order to quantify the amount of STAT3 and STAT5 phosphorylation in these treated cells. Phospho-STAT3 and phospho-STAT5 were compared to total STAT3 and STAT5 and the proportion of STAT phosphorylation relative to untreated controls was determined.

[6] = tested on: STAT3-phospho-Y705 in AGS gastric cancer cell line; test: Western blot of STAT3 phosphorylation in AGS cells; type: cell-based; conditions: 24 hours, 5-10 uM, Western blot densitometry
Method: as §1, with “Electrophoresed proteins are transferred to a nitrocellulose membrane, which is then probed with antibodies to STAT5, pSTAT5 (Tyr 694), STAT3, and pSTAT3 (Tyr 705). As STAT5 and STAT3, at Tyrosine 694 and Tyrosine 705 respectively, are substrates for JAK2, measuring the amount of phosphorylation at these sites in treated cells provides a means by which to evaluate the efficacy of JAK2 inhibitors.” left out
as §3

[7] = tested on: nuclear STAT3 in AGS gastric cancer cells; test: STAT3 nuclear translocation high-content assay (STAT3 HitKit, ArrayScan VTi); type: cell-based
Method: When STAT3 is phosphorylated by JAK2, it forms a homodimer and is translocated to the nucleus to effect transcription of a number of target genes involved in cell proliferation. AGS gastric cancer cells were inoculated onto 96 well plates, and incubated in the presence of 5 μM Compound 1-4 for 1, 5 or 24 hours. Following incubation, cells were stained using the STAT3 HitKit (Thermo-Fisher) and detected using the Molecular Translocation BioApplication on a ArrayScan VTi high-content screening instrument (Thermo-Fisher). Nuclei were pseudostained blue (Hoechst) and STAT3 was pseudostained green (FITC).
Nuclear STAT3 was reduced by greater than 50% 24 h after treatment with Compound 1-4 when compared with nuclear STAT3 levels in untreated samples.

## CN1CCN(c2ccc(Nc3nccc(Nc4cccc(CC#N)c4)n3)cc2)CC1 [Compound 1-7, 2-(3-(2-(4-(4-Methylpiperazin-1-yl)phenylamino)pyrimidin-4-ylamino)phenyl)acetonitrile]
[1]
  EC50: 4 nM
JAK2 WT
  IC50: < 1000 nM
JAK2 kinase [2]
  IC50: < 1000 nM
JAK2 V617F
  IC50: < 1000 nM
JAK2 kinase [3]
  IC50: < 1000 nM
[4]
  IC50: < 10 nM

## CN1CCN(C(=O)c2ccc(Nc3nccc(Nc4cccc(CC#N)c4)n3)cc2)CC1 [Compound 1-17, 2-(3-(2-(4-(4-methylpiperazine-1-carbonyl)phenylamino)pyrimidin-4-ylamino)phenyl)acetonitrile]
[1]
  EC50: 266 nM
JAK2 WT
  IC50: < 1000 nM
JAK2 kinase [2]
  IC50: < 1000 nM
JAK2 V617F
  IC50: < 1000 nM
JAK2 kinase [3]
  IC50: < 1000 nM
[4]
  IC50: < 10 nM

## CN1CCN(c2ccc(Nc3nccc(Nc4ccc(F)c(Cl)c4)n3)cc2)CC1 [Compound 1-4, N4-(3-chloro-4-fluorophenyl)-N2-(4-(4-methylpiperazin-1-yl)phenyl)pyrimidine-2,4-diamine]
[1]
  EC50: 299 nM
JAK2 WT
  IC50: < 1000 nM
JAK2 kinase [2]
  IC50: < 1000 nM
JAK2 V617F
  IC50: < 1000 nM
[5]
  STAT5 phosphorylation relative to untreated controls: reduced levels
[6]
  STAT3 phosphorylation relative to untreated controls: reduced levels
[7]; 5 μM, 1, 5 or 24 hours
  STAT3 staining localisation: confined outside the nucleus
[7]; 5 μM, 24 h after treatment
  Reduction of nuclear STAT3 compared with untreated samples: greater than 50%
JAK2 kinase [3]
  IC50: < 1000 nM
[4]
  IC50: < 10 nM

## CN1CCN(c2ccc(Nc3nccc(Nc4cccc(CC#N)c4)n3)cc2F)CC1 [Compound 1-11, 2-(3-(2-(3-Fluoro-4-(4-methylpiperazin-1-yl)phenylamino)pyrimidin-4-ylamino)phenyl)acetonitrile]
[1]
  EC50: 65.8 nM
JAK2 WT
  IC50: < 1000 nM
JAK2 kinase [2]
  IC50: < 1000 nM
JAK2 V617F
  IC50: < 1000 nM
JAK2 kinase [3]
  IC50: < 1000 nM
[4]
  IC50: < 10 nM
